{"source": "patent US11149047B2", "about": "“Aryl imidazoles for treatment of cancer” (Aptose Biosciences Inc., priority 2017, dated 2021)", "key": {"[1]": {"tested_on": "MCF10A BRCA1-het #1 and #2 clones vs control", "experiment": "Sensitivity of BRCA1-proficient and -deficient isogenic clones", "format": "cell-based, human", "settings": "FIG. 3A", "protocol": "(§1) Cells were plated and treated with the indicated drugs in 96-well plates for 5 days. Cell viability was measured using CellTiter 96 AQueous one solution (MTS) cell proliferation assay purchased from Promega, and IC50 values were calculated using GraphPad Prism 6 Software.\n(§2) The finding that COMPOUND I produced DNA damage led to the investigation of whether cells deficient in homologous recombination were hypersensitive to this drug. The hypothesis that there would be synthetic lethality between COMPOUND I and BRCA1 deficiency using isogenic pairs of BRCA1-proficient and -deficient human cell lines was tested. […] The conclusion that BRCA1-deficient cells are hypersensitive to COMPOUND I was further supported by the results obtained in MCF7 E7 cells in which BRCA1 expression is stably knocked down by the expression of an shRNAi. […] Whether BRCA2-deficient cells are more sensitive to COMPOUND I was tested using the BRCA2-proficient and BRCA2-deficient ovarian cancer cell lines, PEO4 and PEO1, respectively. PEO1 is BRCA2-deficient and sensitive to cisplatin and a poly(ADP-ribose) polymerase inhibitor AG14361. PEO4 was derived from ascites at the time of relapse with cisplatin resistance and contains a secondary mutation that restores BRCA2 function. […] Thus, loss of either BRCA1 or BRCA2 function renders malignant cells hypersensitive to COMPOUND I."}, "[2]": {"tested_on": "hTERT-IMEC BRCA1 knock-in clone", "experiment": "Sensitivity of BRCA1-proficient and -deficient isogenic clones", "format": "cell-based, human", "settings": "FIG. 3B", "protocol": "as §1, §2"}, "[3]": {"tested_on": "KLF4 and CDKN1A expression in AML cell lines", "experiment": "qRT-PCR of KLF4 and CDKN1A (p21) expression", "format": "cell-based", "protocol": "Cells were treated with vehicle or COMPOUND I at various concentrations for 24 hours or at a single concentration for 1, 3, 6, 12, and 24 hours before harvesting. Cells were lysed by QiaShredder columns (QIAGEN, catalog #79656), total RNA was isolated using QIAGEN RNeasy Plus Mini Kit (catalog #74134), and cDNA was synthesized utilizing Transcriptor Universal cDNA master mix (Roche, catalog #05893151001) and then used for qRT-PCR analysis using FastStart essential DNA probes master mix (Roche, catalog #06402682001) and Roche LightCycler96. Primer probe pairs were purchased from IDT (Table 5). Expression was calculated as fold change over vehicle treated samples after normalizing to GAPDH […].\nPrevious studies reported upregulation of KLF4 and CDKN1A expression as a potential mechanism of APT0-COMPOUND I activity in tumors. […] The upregulation of CDKN1A mRNA increased with duration of exposure in all AML cell lines tested (FIGS. 15D and 15E). At later time points, CDKN1A expression began to decrease, likely due to increasing cell death. Induction of CDKN1A expression is typically associated with a subsequent G0-G1, cell-cycle arrest, which was observed following COMPOUND I treatment of solid tumor lines."}, "ds-DNA": {"tested_on": "ds-DNA", "experiment": "Modified FRET assay with ds-DNA hairpin oligo", "format": "binding", "protocol": "FRET assay and data analysis was performed as described previously and modified by using dual labeled (5′ FAM-3′ BHQ1) single-stranded oligos. Melting temperature of each oligo was assessed in the presence of vehicle DMSO or escalating concentrations of COMPOUND I, Fe(COMPOUND I)3, CX-5461, or TMPyP4 using a Roche LightCycler 96 [at 37° C. for 300 seconds followed by temperature increased in […] intervals up to 91° C. (25 steps) with 300-second total incubation time at each temperature]. Drug and oligo reaction mixes were analyzed immediately or incubated for 6 hours at room temperature and then analyzed. […] COMPOUND I data are presented for 6-hour time point.\nTo assess selectivity for G4 structures over nonspecific interactions with ds-DNA, the FRET assay was repeated with a self-complimentary oligo that forms a ds-DNA hairpin in solution. […] The lack of effect on 45 s rRNA may reflect differences in availability of COMPOUND I and/or Fe(COMPOUND I)3 into the rRNA-rich nucleolar region of the nucleus. Nevertheless, COMPOUND I clearly can stabilize G4 structures, which provides an explanation for the inhibition of the expression of MYC and other genes. […]"}}}
{"smiles": "Cc1[nH]c2ccc(F)cc2c1-c1nc2c3cccnc3c3ncccc3c2[nH]1", "note": "[COMPOUND I, 2-(5-fluoro-2-methyl-1H-indol-3-yl)-1H-imidazo[4,5-f][1,10]phenanthroline]", "values": [{"measurement": "sensitivity of BRCA1-het knockin clones vs control", "setting": "[1]", "value": "even more hypersensitive"}, {"measurement": "sensitivity of BRCA1 2-bp knock-in clone", "setting": "[2]", "value": "hypersensitive to both olaparib and COMPOUND I"}, {"measurement": "AML cell lines with upregulated KLF4 expression", "setting": "[3]; 24 hr treatment, FIG. 15A", "value": "4 of 6"}, {"measurement": "CDKN1A (p21) expression", "setting": "[3]; FIGS. 15B and 15C", "value": "induced in all AML cell lines in a concentration-dependent manner"}, {"measurement": "interaction with dsDNA", "setting": "ds-DNA", "value": "did not interact with dsDNA"}]}
